Test results published in patent US20230263822A1, “MODULATION OF FACTOR 11 EXPRESSION” (Ionis Pharmaceuticals, Inc., priority 2008, published 2023).
“And” between values parts separate entries of the source, which are not always exact repeats. Identical values can stand only once. Strand notation (5' to 3'): a small letter for the sugar, then the base; units joined by * are phosphorothioate-linked, units joined directly phosphodiester-linked; [ ] holds rarer units or linkages, { } end groups; capitals alone tell only the bases. e = 2'-O-(2-methoxyethyl) (MOE); [5mC] = 5-methylcytosine; d = 2'-deoxy (DNA)

Legend:
[1] = Viscosity of ISIS antisense oligonucleotides, micro-viscometer at 25 °C (Example 47); assay type: physicochemical; details: for Concentration: concentration of the viscosity sample, UV reading at 260 nM at 85° C.; for Viscosity: in water, micro-viscometer at 25° C., at the concentration of the same line
Procedure, shortened: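 Oligonucleotide (32-35 mg) was dissolved in 120 μL water by heating at 50° C, and viscosity was measured by micro-viscometer at 25° C. Concentration was checked by UV at 260 nm at 85° C on a dilution in water. Screening cut-off: >40 cP at 165-185 mg/mL.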

human Factor 11 mRNA = test: Dose-dependent inhibition of human Factor 11 in HepB3 cells, electroporation (Example 7); assay type: cell-based; details: for percent inhibition of human Factor 11 mRNA relative to untreated control cells: ~16 hours
Experimental: The gapmers were also transfected via electroporation and their dose dependent inhibition of human Factor 11 mRNA was measured. Cells were plated at a density of 20,000 cells per well and transfected via electroporation with 41.15 nM, 123.457 nM, 370.37 nM, 1111.11 nM, 3333.33 nM, and 10,000 nM concentrations of antisense oligonucleotide, as specified in Table 15. After a treatment period of approximately 16 hours, RNA was isolated from the cells and human Factor 11 mRNA levels were measured by quantitative real-time PCR. Human Factor 11 primer probe set RTS 2966 was used to measure mRNA levels. Factor 11 mRNA levels were adjusted according to total RNA content, as measured by RIBOGREEN. Results are presented as percent inhibition of human Factor 11, relative to untreated control cells.

Substance | Concentration [1] | Viscosity [1] | IC50 (human Factor 11 mRNA) | percent inhibition of human Factor 11 mRNA relative to untreated control cells (human Factor 11 mRNA; 41.15 nM) | percent inhibition of human Factor 11 mRNA relative to untreated control cells (human Factor 11 mRNA; 123.457 nM) | percent inhibition of human Factor 11 mRNA relative to untreated control cells (human Factor 11 mRNA; 370.37 nM) | percent inhibition of human Factor 11 mRNA relative to untreated control cells (human Factor 11 mRNA; 1111.11 nM) | percent inhibition of human Factor 11 mRNA relative to untreated control cells (human Factor 11 mRNA; 3333.33 nM) | percent inhibition of human Factor 11 mRNA relative to untreated control cells (human Factor 11 mRNA; 10000 nM)
412223 (antisense ACAGTTTCTGGCAGGCCTCG; 5-10-5 MOE gapmer, further chemistry not given here) [compound 412223] | 163 mg/mL | 8 cP | – | – | – | – | – | – | –
412224 (antisense GCATTGGTGCACAGTTTCTG; 5-10-5 MOE gapmer, further chemistry not given here) [compound 412224] | 186 mg/mL | 98 cP | – | – | – | – | – | – | –
412225 (antisense GCAGCGGACGGCATTGGTGC; 5-10-5 MOE gapmer, further chemistry not given here) [compound 412225] | 162 mg/mL | >100 cP | – | – | – | – | – | – | –
413482 (antisense GGACGGCATTGGTGCACAGT; 5-10-5 MOE gapmer, further chemistry not given here) [compound 413482] | 172 mg/mL | 16. cP | – | – | – | – | – | – | –
416850 (antisense TGCACAGTTTCTGGCAGGCC; 5-10-5 gapmer, further chemistry not given here) [compound 416850] | 152 mg/mL | 67 cP | 300 nM | 26% | 38% | 51% | 73% | 90% | 95%
416856 (antisense GGCATTGGTGCACAGTTTCT; 5-10-5 gapmer, further chemistry not given here) [compound 416856] | 175 mg/mL | 18 cP | – | – | – | – | – | – | –
416858 (antisense ACGGCATTGGTGCACAGTTT; 5-10-5 gapmer, further chemistry not given here) [compound 416858] | 166 mg/mL | 10 cP | 300 nM | 23% | 45% | 52% | 64% | 87% | 92%
416925 (antisense GGTGCACAGTTTCTGGCAGG; 3-14-3 gapmer chemistry, further chemistry not given here) [compound 416925] | – | – | 200 nM | 27% | 39% | 50% | 73% | 88% | 96%
416999 (antisense GCACAGTTTCTGGCAGGCCT; 2-13-5 gapmer chemistry, further chemistry not given here) [compound 416999] | – | – | 160 nM | 31% | 45% | 62% | 78% | 94% | 97%
417002 (antisense GGTGCACAGTTTCTGGCAGG; 2-13-5 gapmer chemistry, further chemistry not given here) [compound 417002] | – | – | 1200 nM | 19% | 0% | 31% | 47% | 86% | 93%
417003 (antisense TGGTGCACAGTTTCTGGCAG; 2-13-5 gapmer chemistry, further chemistry not given here) [compound 417003] | – | – | 1500 nM | 31% | 0% | 15% | 43% | 84% | 92%
445522 (antisense eG*e[5mC]*eA*e[5mC]*eA*dG*dT*dT*dT*d[5mC]*dT*dG*dG*e[5mC]*eA*eG*eG*e[5mC]) [compound 445522] | 173 mg/mL and 174 mg/mL | 63 cP and 58 cP | – | – | – | – | – | – | –
445531 (antisense eG*eG*e[5mC]*eA*eT*dT*dG*dG*dT*dG*d[5mC]*dA*d[5mC]*eA*eG*eT*eT*eT) [compound 445531] | 155 mg/mL and 179 mg/mL | 15 cP and 20 cP | – | – | – | – | – | – | –
